Test system: 945468-187-T-J2-PDC spheroids viability
Test: Anticancer human tumor 945468-187-T-J2-PDC patient-derived rectal carcinoma cell line growth inhibition [PI3K]
Conditions: spheroids with HUVEC and MSC; for IC50: curve of first compound; for viability, T/C: stronger effect = lower value; active = viability on the fitted dose curve at most 10% of control; inactive = the rest
Outline: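 We assembled tumor spheroids that included a stromal compartment of HUVEC and MSCs, then exposed them to targeted agents alone and together with PI3K pathway inhibitors. Concentration series descended by half-log from clinically achievable Cmax levels. Viability served as the endpoint.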

[1] = second compound 0.0316 µM, first compound 0.0316 µM
[2] = second compound 0.0316 µM, first compound 0.1 µM
[3] = second compound 0.0316 µM, first compound 0.316 µM
[4] = second compound 0.0316 µM, first compound 1 µM
[5] = second compound 0.0316 µM, first compound 3.16 µM
[6] = second compound 0.0316 µM, first compound 10 µM
[7] = second compound 0.1 µM, first compound 0.0316 µM
[8] = second compound 0.1 µM, first compound 0.1 µM
[9] = second compound 0.1 µM, first compound 0.316 µM
[10] = second compound 0.1 µM, first compound 1 µM
[11] = second compound 0.1 µM, first compound 3.16 µM
[12] = second compound 0.1 µM, first compound 10 µM
[13] = second compound 0.316 µM, first compound 0.0316 µM
[14] = second compound 0.316 µM, first compound 0.1 µM
[15] = second compound 0.316 µM, first compound 0.316 µM
[16] = second compound 0.316 µM, first compound 1 µM
[17] = second compound 0.316 µM, first compound 3.16 µM
[18] = second compound 0.316 µM, first compound 10 µM
[19] = second compound 1 µM, first compound 0.0316 µM
[20] = second compound 1 µM, first compound 0.1 µM
[21] = second compound 1 µM, first compound 0.316 µM
[22] = second compound 1 µM, first compound 1 µM
[23] = second compound 1 µM, first compound 3.16 µM
[24] = second compound 1 µM, first compound 10 µM
[25] = second compound 3.16 µM, first compound 0.0316 µM
[26] = second compound 3.16 µM, first compound 0.1 µM
[27] = second compound 3.16 µM, first compound 0.316 µM
[28] = second compound 3.16 µM, first compound 1 µM
[29] = second compound 3.16 µM, first compound 3.16 µM
[30] = second compound 3.16 µM, first compound 10 µM
[31] = second compound 10 µM, first compound 0.0316 µM
[32] = second compound 10 µM, first compound 0.1 µM
[33] = second compound 10 µM, first compound 0.316 µM
[34] = second compound 10 µM, first compound 1 µM
[35] = second compound 10 µM, first compound 3.16 µM
[36] = second compound 10 µM, first compound 10 µM
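Also: spheroids exposed to compounds for seven days before reading.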

CC1(C)CCC(CN2CCN(c3ccc(C(=O)NS(=O)(=O)c4ccc(NCC5CCOCC5)c([N+](=O)[O-])c4)c(Oc4cnc5[nH]ccc5c4)c3)CC2)=C(c2ccc(Cl)cc2)C1 + CC(Nc1ncnc2nc[nH]c12)c1cc2cccc(Cl)c2c(=O)n1-c1ccccc1
> 10 µM: IC50 (second compound 0.0316 µM) | IC50 (second compound 0.1 µM) | IC50 (second compound 0.316 µM) | IC50 (second compound 1 µM) | IC50 (second compound 3.16 µM) | IC50 (second compound 10 µM)
inactive: viability, T/C [1] 91.7% | viability, T/C [2] 92.2% | viability, T/C [3] 99.8% | viability, T/C [4] 98.2% | viability, T/C [5] 94% | viability, T/C [6] 81% | viability, T/C [7] 82.3% | viability, T/C [8] 75.7% | viability, T/C [9] 84.5% | viability, T/C [10] 78.6% | viability, T/C [11] 96.5% | viability, T/C [12] 79.1% | viability, T/C [13] 97.1% | viability, T/C [14] 93.4% | viability, T/C [15] 93.2% | viability, T/C [16] 100% | viability, T/C [17] 119% | viability, T/C [18] 80.5% | viability, T/C [19] 97.4% | viability, T/C [20] 87.8% | viability, T/C [21] 103% | viability, T/C [22] 92.9% | viability, T/C [23] 107% | viability, T/C [24] 63.2% | viability, T/C [25] 96% | viability, T/C [26] 115% | viability, T/C [27] 84.8% | viability, T/C [28] 134% | viability, T/C [29] 102% | viability, T/C [30] 86.6% | viability, T/C [31] 94.5% | viability, T/C [32] 81.5% | viability, T/C [33] 104% | viability, T/C [34] 124% | viability, T/C [35] 97.7% | viability, T/C [36] 84.8%

C[C@@H](NC(=O)c1ncnc(N)c1Cl)c1ncc(C(=O)Nc2cc(C(F)(F)F)c(Cl)cn2)s1 + CC(Nc1ncnc2nc[nH]c12)c1cc2cccc(Cl)c2c(=O)n1-c1ccccc1
> 10 µM: IC50 (second compound 0.0316 µM) | IC50 (second compound 0.1 µM) | IC50 (second compound 0.316 µM) | IC50 (second compound 1 µM) | IC50 (second compound 3.16 µM) | IC50 (second compound 10 µM)
inactive: viability, T/C [1] 83.6% | viability, T/C [2] 82.8% | viability, T/C [3] 113% | viability, T/C [4] 106% | viability, T/C [5] 109% | viability, T/C [6] 86.2% | viability, T/C [7] 119% | viability, T/C [8] 108% | viability, T/C [9] 85.5% | viability, T/C [10] 68.7% | viability, T/C [11] 121% | viability, T/C [12] 104% | viability, T/C [13] 119% | viability, T/C [14] 90.9% | viability, T/C [15] 99.3% | viability, T/C [16] 92.2% | viability, T/C [17] 93.3% | viability, T/C [18] 80.7% | viability, T/C [19] 92.7% | viability, T/C [20] 108% | viability, T/C [21] 81.3% | viability, T/C [22] 95% | viability, T/C [23] 83.1% | viability, T/C [24] 90.1% | viability, T/C [25] 103% | viability, T/C [26] 110% | viability, T/C [27] 77.7% | viability, T/C [28] 124% | viability, T/C [29] 110% | viability, T/C [30] 104% | viability, T/C [31] 83% | viability, T/C [32] 123% | viability, T/C [33] 110% | viability, T/C [34] 84.4% | viability, T/C [35] 119% | viability, T/C [36] 108%
